Data taken from patent publication US20040023986A1, “Substituted felbamate derived compounds” (priority 2003, published 2004).

Key:
[1] = LC/MS quantification of felbamate and its metabolites excreted in patient urine; type: in vivo, human; conditions: 34 urine samples from 31 patients on felbamate therapy
Procedure: Preparation of Patient Urine Samples. Urine samples were obtained from patient volunteers undergoing felbamate therapy for control of epileptic seizures and under the care of physicians at either the University of Virginia (Charlottesville, Va.) or the EpiCare Center (Memphis, Tenn.). Urine samples were diluted four fold with distilled water (this was done prior to overnight shipment for samples requiring shipping) and placed in an orbital shaking water bath for˜20 min at 37° C. to insure that all of the analytes were in solution. 500 μL of this diluted sample were removed and added to 100 μL of a mixture of the four deuterated internal standards. […] After mixing, 200 μL were removed and added to 20 μL of 20% H0Ac. […] This fraction was then analyzed by LC/MS without further manipulation.
LC/MS Analysis of Urine Samples for Metabolite Quantification. LC/MS analysis was performed using a Waters 2690 HPLC equipped with an autosampler and a Waters 486 tunable absorbance detector. […] The post-column flow was directed through a Waters 486 tunable absorbance detector (10 μL flow cell, λ=214 nm) which was used for qualitative assessment of the sample and not for quantitation. […]
Quantification was achieved by integration of the peaks from the mass chromatogram for each analyte using software (Navigator 1.1) provided with the LCQ. […]

[2] = cited from earlier work
[3] = system: rat model of painful peripheral neuropathy; conditions: rat (Imamura 1995); cited from earlier work
[4] = system: intractable tic douloureux; conditions: doses of 1200-2400 mg/day (Chesire 1995); cited from earlier work
[5] = felbamate therapy; cited from earlier work
[6] = Chemical stability of felbamate metabolites; type: physicochemical; conditions: at relevant pH
[7] = human, after felbamate; cited from earlier work

What does the source list for NC(=O)OCC(COC(N)=O)c1ccccc1 [felbamate, 2-phenyl-1,3-propanediol dicarbamate]?
presence of atropaldehyde derived mercapturic acids 7 and 8 in urine [1]: All of the urine samples analyzed were found to contain both of the mercapturic acids; course of weight loss ([2]; add-on therapy in partial epilepsy in children (Carmant 1994)): weight loss was transient and returned to normal after twenty weeks; weight loss ([2]; patients on felbamate monotherapy (Faught 1993)): 4-5%; measures of pain [3]: significant reductions in all measures of pain; treatment effect [4]: effectively treated; mean onset time of severe toxicities [5]: ≤ 6 months

Which stability [6] does the source give for O=C1NC(=O)C(c2ccccc2)CO1 (centres unmarked) [oxazinane-dione 9] here?
The stability was “unstable”.

With NC(=O)CC(C(=O)O)c1ccccc1 (centres unmarked) [acid carbamate 4, 3-carbamoyl-2-phenylpropionic acid] as the compound, how does the “fraction of a felbamate dose represented by the metabolite” value [7] read?
Its value is ~12 % of a dose.
